Source: patent publication US10774132B2, “Ultralong complementarity determining regions and uses thereof” (THE SCRIPPS RESEARCH INSTITUTE, priority 2012, dated 2020)

Experiments:
[1] = target: T1, GLP-1 receptor (GLP-1R) (Homo sapiens, UniProt P43220); assay: GLP-1R activation, cAMP responsive luciferase reporter in HEK293 cells; format: cell-based; conditions: HEK293 cells expressing GLP-1R, 24 h
T1 construct: expressed in transfected cells; host or cells: HEK293 (with cAMP responsive luciferase reporter gene)
T1 sequence (P43220 24-463, species assumed): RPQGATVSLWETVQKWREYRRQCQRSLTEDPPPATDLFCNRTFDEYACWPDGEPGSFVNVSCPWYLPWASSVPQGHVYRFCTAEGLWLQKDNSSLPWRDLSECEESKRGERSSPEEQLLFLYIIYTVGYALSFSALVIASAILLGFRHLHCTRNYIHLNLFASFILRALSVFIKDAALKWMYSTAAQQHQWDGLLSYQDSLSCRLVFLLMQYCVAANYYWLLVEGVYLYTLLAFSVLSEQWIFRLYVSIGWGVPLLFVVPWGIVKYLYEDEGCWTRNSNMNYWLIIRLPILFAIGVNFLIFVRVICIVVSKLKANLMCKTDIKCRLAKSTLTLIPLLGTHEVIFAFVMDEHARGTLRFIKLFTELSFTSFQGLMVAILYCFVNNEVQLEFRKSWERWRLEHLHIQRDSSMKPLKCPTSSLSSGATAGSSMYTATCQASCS
Experimental: HEK293 cells expressing surface GLP-1R and cAMP responsive luciferase reporter gene were seeded in 384 well plates at a density of 5000 cells per well. […] Subsequently, luciferase assay was performed using One-Glo luciferase reagent according manufacture's instruction (Promega).
HEK293 cells expressing surface GLP-1R and cAMP responsive luciferase reporter gene were seeded in 384 well plates at a density of 5000 cells per well. After 24 h incubation at 37° C. with 5% CO2, cells were treated with various concentrations of peptides and BLV1H12-GLP-1 clip fusion proteins and incubated for another 24 h. Subsequently, luciferase assay was performed using One-Glo luciferase reagent according manufacture's instruction (Promega).

[2] = test system: Mouse NFS-60 cells; assay: Proliferation assay on mouse NFS-60 cells (AlamarBlue); format: cell-based; conditions: 72 hours
Experimental: Mouse NFS-60 cells were obtained from American Type Culture Collection (ATCC), VA, and cultured in RPMI-1640 medium supplemented with 10% fetal bovine serum (FBS), 0.05 mM 2-mercapoethanol and 62 ng/ml human macrophage colony stimulating factor (M-CSF). For proliferation assay, mouse NFS-60 cells were washed three times with RPMI-1640 medium and resuspended in RPMI-1640 medium with 10% FBS and 0.05 mM 2-mercapoethanol at a density of 1.5×10^5 cells/ml. In 96-well plates, 100 μl of cell suspension was added into each well, followed by the addition of varied concentrations of bGCSF, BLV1H12 antibody, and the immunoglobulin constructs described herein, Equal volume of PBS buffer was added into the control wells. The plates were incubated at 37° C. in a 5% CO2 incubator for 72 hours. Cells were then treated with AlamarBlue (Invitrogen) ( 1/10 volume of cell suspension) for 4 hours at 37° C. Fluorescence at 595 nm for each well was read to indicate the cell viability.

[3] = Pharmacokinetics in mice (ELISA of blood samples); format: in vivo; conditions: 70 μg injected, BALB/c mice
Experimental: For PK study in mice, 70 μg of the immunoglobulin constructs described herein were injected into 3 BALB/c mice per group. Blood samples were drawn from time 0 to 14 days with extended intervals and analyzed by ELISA using anti-human IgG Fc antibody with horseradish peroxidase (HRP) labeled (KPL) and anti-6×His antibody (“6×His” disclosed as SEQ ID NO: 511) with HRP labeled (Clontech). Data were normalized by taking maximal concentration at the first time point (30 min).

[4] = test system: Human mPB CD34+ cells; assay: Proliferative activity on human granulocyte progenitors (flow cytometry); format: cell-based; conditions: 7 days, flow cytometry
Experimental: Human mPB CD34^+ cells were purchased from AllCells. Cells were resuspended in HSC expansion medium (StemSpan SFEM, StemCell Technologies) supplemented with 1× antibiotics and the following recombinant human cytokines: thrombopoietin, IL6, Flt3 ligand, and stem cell factor (100 ng/mL, R & D Systems), then plated in 96-well plates (1000 cells per well), with varied concentrations of BLV1H12-bGCSF fusion antibodies. Cells were cultured for 7 days at 37° C. in a 5% CO2 incubator, then analyzed by flow cytometry to measure cell number and expression of CD45ra and CD41. Cells were stained in staining medium (HBSS supplemented with 2% FBS and 2 mM EDTA) at 4° C. for 1 h with PECy7 anti-CD45ra and eFluor 450 anti-CD41 (eBiosciences), then washed with staining medium and analyzed. Multicolor analysis for cell phenotyping was performed on a LSR II flow cytometer (Becton Dickinson). FIGS. 10A-10E and Tables 9-10 show the human granulocyte progenitor cell proliferative activities of the Ab-GCSF fusion antibodies.

[5] = test system: mice neutrophils; assay: Neutrophil counts in mice, 10th day after injection; format: in vivo; conditions: blood stained and counted at the 10th day post-injection
Experimental: On the 10th day after injection of BLV1H12-bGCSF fusion antibodies into mice for PK study, blood samples were drawn from the mice and stained using the Diff Quick Staining Kit (Thermo Fisher Scientific, IL). Neutrophils and white blood cells were counted under microscope and the percentages of neutrophils were analyzed. FIGS. 12A-12B and Table 12 show proliferative activities of BLV1H12-bGCSF fusion antibodies on mice neutrophils that are blood stained and counted at the 10th day post-injection.

## Ab-Ex4: Exendin-4 with Factor Xa site and GGGGS linkers grafted into CDR3H of BLV1H12
[1]; 1.26953 nM
  RLU (cAMP responsive luciferase reporter): 6120 RLU
[1]; 2.53906 nM
  RLU (cAMP responsive luciferase reporter): 6360 RLU
[1]; 5.07813 nM
  RLU (cAMP responsive luciferase reporter): 8500 RLU
[1]; 10.15625 nM
  RLU (cAMP responsive luciferase reporter): 10420 RLU
[1]; 20.3125 nM
  RLU (cAMP responsive luciferase reporter): 19340 RLU
[1]; 40.625 nM
  RLU (cAMP responsive luciferase reporter): 27960 RLU
[1]; 81.25 nM
  RLU (cAMP responsive luciferase reporter): 54800 RLU
[1]; 162.5 nM
  RLU (cAMP responsive luciferase reporter): 90660 RLU
[1]; 325 nM
  RLU (cAMP responsive luciferase reporter): 117900 RLU
[1]; 650 nM
  RLU (cAMP responsive luciferase reporter): 134760 RLU
[1]; 1300 nM
  RLU (cAMP responsive luciferase reporter): 159660 RLU

## Ab-bGCSF L0: bovine G-CSF replacing the knob domain of BLV1H12 CDR3H, no linker (n=0), SEQ ID NO: 4
[2]; 0.09876 ng/mL
  F.I. (fluorescence at 595 nm, AlamarBlue, cell viability): 1328
[2]; 0.29627 ng/mL
  F.I. (fluorescence at 595 nm, AlamarBlue, cell viability): 1436
[2]; 0.88881 ng/mL
  F.I. (fluorescence at 595 nm, AlamarBlue, cell viability): 1734.765
[2]; 2.66642 ng/mL
  F.I. (fluorescence at 595 nm, AlamarBlue, cell viability): 2189
[2]; 7.99927 ng/mL
  F.I. (fluorescence at 595 nm, AlamarBlue, cell viability): 2680
[2]; 23.9978 ng/mL
  F.I. (fluorescence at 595 nm, AlamarBlue, cell viability): 2899
[2]; 71.9934 ng/mL
  F.I. (fluorescence at 595 nm, AlamarBlue, cell viability): 2921
[2]; 215.9802 ng/mL
  F.I. (fluorescence at 595 nm, AlamarBlue, cell viability): 3416
[3]; day 0.021
  Percentage (blood level normalized to first time point, 30 min): 100.00%
[3]; day 0.042
  Percentage (blood level normalized to first time point, 30 min): 91.12%
[3]; day 0.083
  Percentage (blood level normalized to first time point, 30 min): 91.24%
[3]; day 0.125
  Percentage (blood level normalized to first time point, 30 min): 91.56%
[3]; day 0.250
  Percentage (blood level normalized to first time point, 30 min): 61.22%
[3]; day 1.000
  Percentage (blood level normalized to first time point, 30 min): 44.22%
[3]; day 2.000
  Percentage (blood level normalized to first time point, 30 min): 36.36%
[3]; day 3.000
  Percentage (blood level normalized to first time point, 30 min): 27.38%
[3]; day 8.000
  Percentage (blood level normalized to first time point, 30 min): 11.53%
[3]; day 10.000
  Percentage (blood level normalized to first time point, 30 min): 12.44%
[3]; day 14.000
  Percentage (blood level normalized to first time point, 30 min): 14.35%
[4]; 0.14225 ng/mL
  Number of CD45RA-CD41-: 2601
[4]; 0.42676 ng/mL
  Number of CD45RA-CD41-: 2253
[4]; 3.84088 ng/mL
  Number of CD45RA-CD41-: 4399
[4]; 11.52263 ng/mL
  Number of CD45RA-CD41-: 7262
[4]; 34.5679 ng/mL
  Number of CD45RA-CD41-: 9902
[4]; 103.7037 ng/mL
  Number of CD45RA-CD41-: 11500
[4]; 311.11111 ng/mL
  Number of CD45RA-CD41-: 11500
[4]; 933.33333 ng/mL
  Number of CD45RA-CD41-: 11900
[4]; 2800 ng/mL
  Number of CD45RA-CD41-: 12100
[5]
  Percentage of Neutrophil: 25.05

## Ab-bGCSF L1: bovine G-CSF replacing the knob domain of BLV1H12 CDR3H with GGGGS linkers on both ends (n=1), SEQ ID NO: 5
[2]; 0.09808 ng/mL
  F.I. (fluorescence at 595 nm, AlamarBlue, cell viability): 1412.387
[2]; 0.29424 ng/mL
  F.I. (fluorescence at 595 nm, AlamarBlue, cell viability): 1654.776
[2]; 0.88272 ng/mL
  F.I. (fluorescence at 595 nm, AlamarBlue, cell viability): 2082.718
[2]; 2.64816 ng/mL
  F.I. (fluorescence at 595 nm, AlamarBlue, cell viability): 2550.674
[2]; 7.94449 ng/mL
  F.I. (fluorescence at 595 nm, AlamarBlue, cell viability): 2997.807
[2]; 23.83346 ng/mL
  F.I. (fluorescence at 595 nm, AlamarBlue, cell viability): 3277.812
[2]; 71.50039 ng/mL
  F.I. (fluorescence at 595 nm, AlamarBlue, cell viability): 3308.383
[2]; 214.50117 ng/mL
  F.I. (fluorescence at 595 nm, AlamarBlue, cell viability): 3868.075
[3]; day 0.021
  Percentage (blood level normalized to first time point, 30 min): 100.00%
[3]; day 0.042
  Percentage (blood level normalized to first time point, 30 min): 102.12%
[3]; day 0.083
  Percentage (blood level normalized to first time point, 30 min): 104.03%
[3]; day 0.125
  Percentage (blood level normalized to first time point, 30 min): 101.71%
[3]; day 0.250
  Percentage (blood level normalized to first time point, 30 min): 93.90%
[3]; day 1.000
  Percentage (blood level normalized to first time point, 30 min): 59.26%
[3]; day 2.000
  Percentage (blood level normalized to first time point, 30 min): 56.66%
[3]; day 3.000
  Percentage (blood level normalized to first time point, 30 min): 39.09%
[3]; day 8.000
  Percentage (blood level normalized to first time point, 30 min): 22.21%
[3]; day 10.000
  Percentage (blood level normalized to first time point, 30 min): 21.15%
[3]; day 14.000
  Percentage (blood level normalized to first time point, 30 min): 21.41%
[4]; 0.30483 ng/mL
  Number of CD45RA-CD41-: 4070
[4]; 0.91449 ng/mL
  Number of CD45RA-CD41-: 3601
[4]; 2.74348 ng/mL
  Number of CD45RA-CD41-: 4303
[4]; 8.23045 ng/mL
  Number of CD45RA-CD41-: 6404
[4]; 24.69136 ng/mL
  Number of CD45RA-CD41-: 9122
[4]; 74.07407 ng/mL
  Number of CD45RA-CD41-: 11200
[4]; 222.22222 ng/mL
  Number of CD45RA-CD41-: 11000
[4]; 666.66667 ng/mL
  Number of CD45RA-CD41-: 11400
[4]; 2000 ng/mL
  Number of CD45RA-CD41-: 11400
[4]; 6000 ng/mL
  Number of CD45RA-CD41-: 13200
[5]
  Percentage of Neutrophil: 25.32
